In paper PMC10321483 (Chemical Science, 2023):
Where “and” joins values, the source holds several entries; their conditions need not be identical. Equal entries are not always repeated. Where two headings read alike, the source gives them in different places.

How the values were obtained:
[1] = biological target: T1, LdtMt2 (Mycobacterium tuberculosis, UniProt I6Y9J2); experiment: Rate constant of covalent target inactivation (kinact/KI), endpoint competition assay with probe 2; type: biochemical; parameters: made in house; host or cells: E. coli
T1 sequence (I6Y9J2 56-408): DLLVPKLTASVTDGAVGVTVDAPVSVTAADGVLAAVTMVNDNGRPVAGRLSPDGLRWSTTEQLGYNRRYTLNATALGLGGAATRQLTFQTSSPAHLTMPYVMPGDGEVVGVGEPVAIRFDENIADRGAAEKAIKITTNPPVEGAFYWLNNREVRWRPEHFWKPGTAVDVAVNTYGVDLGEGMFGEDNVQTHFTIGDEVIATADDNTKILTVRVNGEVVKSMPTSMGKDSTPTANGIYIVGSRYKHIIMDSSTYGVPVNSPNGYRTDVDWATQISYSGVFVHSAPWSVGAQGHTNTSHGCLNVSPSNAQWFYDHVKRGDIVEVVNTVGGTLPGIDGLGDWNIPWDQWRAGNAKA

[2] = biological target: T1, LdtMt2; experiment: biochemical; type: binding; parameters: made in house; host or cells: E. coli; conditions: for ΔTm at 500 µM: read-out: ΔTm: difference in melting point of LdtMt2 relative to unreacted LdtMt2 (43.8 °C)
Procedure: LdtMt2 (5 μM) was incubated with the inhibitor (500 μM) in assay buffer (50 mM tris pH 7.5) for 30 minutes at room temperature in 96-well white PCR plates (25 μL final volume, Starlab). SYPRO Orange (final concentration 6×, according to manufacturer's definition, Invitrogen) was then added and the plate was sealed using a transparent plastic film (Polyolefin StarSeal, Starlab). Fluorescence was monitored (with λex = 492 nm and λem = 610 nm) using a CFX96 Touch Real-Time PCR Detection System (Bio-Rad), while the temperature was increased from 20 to 95 °C in increments of 0.2 °C. Melting temperatures (Tms) were determined using the CFX Maestro Software (Bio-Rad).

[3] = biological target: T2, BlaC (Mycobacterium tuberculosis, UniProt P9WKD3); experiment: BlaC fluorogenic inhibition assay with FC5 (dose-response); type: biochemical; conditions: Table S5 HTS hits, 30 minute inhibitor pre-incubation, two independent repeats
T2 construct: made in house; host or cells: E. coli
T2 sequence (P9WKD3 35-307): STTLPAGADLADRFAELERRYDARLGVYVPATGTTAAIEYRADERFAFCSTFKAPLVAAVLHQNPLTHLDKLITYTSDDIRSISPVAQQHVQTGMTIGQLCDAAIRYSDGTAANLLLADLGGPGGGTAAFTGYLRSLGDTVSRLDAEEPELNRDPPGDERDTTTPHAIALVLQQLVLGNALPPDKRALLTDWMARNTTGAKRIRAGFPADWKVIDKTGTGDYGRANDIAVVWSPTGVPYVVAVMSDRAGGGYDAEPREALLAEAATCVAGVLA
Procedure: Two types of controls were used. […] In control 2, the BlaC mixture was substituted with the assay buffer. This mixture was incubated for 30 minutes at room temperature without shaking. […] Data were analysed using ActivityBase (IDBS).

[4] = biological target: T1, LdtMt2; experiment: biochemical; type: biochemical; parameters: made in house; host or cells: E. coli; conditions: for IC50: Table S5 HTS hits, 30 minute inhibitor pre-incubation, two independent repeats, read-out: pIC50 LdtMt2 (converted)
[5] = 5 µM LdtMt2, 500 µM inhibitor, SYPRO Orange, 50 mM Tris pH 7.5
[6] = 100 nM LdtMt2, 10 µM probe 2, 3 h incubation, n=4
[7] = 100 nM LdtMt2, 10 µM probe 2, 3 h incubation, n=4, read-out: kinact/KI

CCC(C)C(NC(=O)OCc1ccccc1)C(=O)CCl (stereo not drawn) [Compound 2]
kinact/KI [1]: 68.4 ± 3.5 M⁻¹ s⁻¹ | Tm: melting point of LdtMt2 after pre-incubation with the compound [2, 5]: 43.7 ± 0.09 °C | ΔTm at 500 µM [2]: -0.1 °C | IC50 ([3]; pIC50 BlaC): > 100000 nM | LE (ligand efficiency) ([4]; Table S5, for LdtMt2): 0.56 | IC50 [4]: 77.6 nM

O=C1C=CC(=O)N1c1ccccc1 [Compound 3]
kinact/KI [1]: 3990 ± 356 M⁻¹ s⁻¹ | Tm: melting point of LdtMt2 after pre-incubation with the compound [2, 5]: 45.0 ± 0.16 °C | ΔTm at 500 µM [2]: 1.2 °C | IC50 ([3]; pIC50 BlaC): 9330 nM | LE (ligand efficiency) ([4]; Table S5, for LdtMt2): 0.86 | IC50 [4]: 70.8 nM

CS(=O)(=O)c1ccc(F)c(N2C(=O)C=CC2=O)c1 [Compound 4]
kinact/KI [1]: 36.5 ± 7.9 M⁻¹ s⁻¹ | Tm: melting point of LdtMt2 after pre-incubation with the compound [2, 5]: 45.6 ± 0.28 °C | ΔTm at 500 µM [2]: 1.8 °C | IC50 ([3]; pIC50 BlaC): 60300 nM | LE (ligand efficiency) ([4]; Table S5, for LdtMt2): 0.62 | IC50 [4]: 87.1 nM

CC(C)(C)OC(=O)Nc1ccc(N2C(=O)C=CC2=O)cc1 [Compound 6]
kinact/KI [1, 6]: 127 ± 7.7 M⁻¹ s⁻¹ | ΔTm: difference in melting point of LdtMt2 relative to unreacted LdtMt2 (43.8 °C) [2]: +1.7 °C | Tm: melting point of LdtMt2 after pre-incubation with the compound ([2]; pH 7.5): 45.5 ± 0.09 °C | LE (ligand efficiency) [4]: 0.52

COc1cccc(NC(=O)/C(Cl)=C(\Cl)S(=O)(=O)Cc2ccccc2Cl)n1 [Compound 8]
kinact/KI [1]: 91.6 ± 2 M⁻¹ s⁻¹ | ΔTm at 500 µM [2]: 0.7 °C | IC50 ([3]; pIC50 BlaC): > 100000 nM | LE (ligand efficiency) ([4]; Table S5, for LdtMt2): 0.43 | IC50 [4]: 69.2 nM

Cc1ccc(C=CC(=O)Nc2ccc(S(N)(=O)=O)cc2)o1 [Compound 9]
kinact/KI [1, 6]: 90.7 ± 4.7 M⁻¹ s⁻¹ | Tm: melting point of LdtMt2 after pre-incubation with the compound ([2]; pH 7.5): 43.1 ± 0.09 °C | LE (ligand efficiency) [4]: 0.53

Cc1ccc(C=CC(=O)Nc2ccccc2C(N)=O)o1 [Compound 11]
kinact/KI [1, 6]: 172 ± 6.0 M⁻¹ s⁻¹ | ΔTm: difference in melting point of LdtMt2 relative to unreacted LdtMt2 (43.8 °C) [2]: +0.2 | Tm: melting point of LdtMt2 after pre-incubation with the compound ([2]; pH 7.5, in °C (unit assumed)): 44.0 ± 0.16 | pIC50 BlaC [3]: < 4.0 | LE (ligand efficiency) [4]: 0.56

NC(=O)C=CC(=O)Nc1ccc(Cl)cc1 [Compound 13]
kinact/KI [1, 7]: 6.48 ± 0.11 M⁻¹ s⁻¹ | Tm: melting point of LdtMt2 after pre-incubation with the compound [2, 5]: 44.8 ± 0.00 °C | ΔTm at 500 µM [2]: 1 °C | IC50 ([3]; pIC50 BlaC): > 100000 nM | LE (ligand efficiency) ([4]; Table S5, for LdtMt2): 0.75 | IC50 [4]: 417 nM

Cn1c(SCC2=C(C(=O)O)N3C(=O)[C@@H](NC(=O)COc4ccccc4)[C@H]3SC2)n[nH]c1=O [Compound 19]
Tm: melting point of LdtMt2 after pre-incubation with the compound [2, 5]: 42.9 ± 0.09 °C | ΔTm at 500 µM [2]: -0.9 °C | IC50 ([3]; read-out: pIC50 BlaC (converted)): > 100000 nM | LE (ligand efficiency) ([4]; Table S5, for LdtMt2): 0.35 | IC50 [4]: 2400 nM and 2400 to 2820 nM

COc1ccc(COC(=O)C2N3C(=O)C(Br)C3S(=O)(=O)C2(C)C)cc1 (stereo not drawn) [Compound 21]
kinact/KI [1, 6]: 53.2 ± 4.7 M⁻¹ s⁻¹ | ΔTm: difference in melting point of LdtMt2 relative to unreacted LdtMt2 (43.8 °C) [2]: -0.7 | Tm: melting point of LdtMt2 after pre-incubation with the compound ([2]; pH 7.5, in °C (unit assumed)): 43.1 ± 0.09 | LE (ligand efficiency) [4]: 0.45

N#Cn1c(-c2ccc(F)cc2C(F)(F)F)nc2ccccc21 [Compound 22]
kinact/KI [1]: 55.1 ± 3 M⁻¹ s⁻¹ | Tm: melting point of LdtMt2 after pre-incubation with the compound [2, 5]: 42.5 ± 0.09 °C | ΔTm at 500 µM [2]: -1.3 °C | IC50 ([3]; pIC50 BlaC): > 100000 nM | LE (ligand efficiency) ([4]; Table S5, for LdtMt2): 0.51 | IC50 [4]: 29.5 nM

N#Cn1c(-c2ccnnc2)nc2ccccc21 [Compound 24]
kinact/KI [1, 6]: 158 ± 5.7 M⁻¹ s⁻¹ | Tm: melting point of LdtMt2 after pre-incubation with the compound ([2]; pH 7.5, in °C (unit assumed)): 42.0 ± 0.00 | pIC50 BlaC [3]: < 4.0 | LE (ligand efficiency) [4]: 0.66

N#Cn1c(-c2cncnc2)nc2ccccc21 [Compound 25]
kinact/KI [1, 6]: 77.5 ± 6.0 M⁻¹ s⁻¹ | pIC50 BlaC [3]: < 4.0 | LE (ligand efficiency) [4]: 0.66

N#Cn1c(-c2ccc3nccnc3c2)nc2ccccc21 [Compound 26]
kinact/KI [1, 6]: 65.0 ± 4.4 M⁻¹ s⁻¹ | lowered the melting temperature of LdtMt2 by [2]: 2.1 °C | ΔTm: difference in melting point of LdtMt2 relative to unreacted LdtMt2 (43.8 °C) [2]: -2.1 | Tm: melting point of LdtMt2 after pre-incubation with the compound ([2]; pH 7.5, in °C (unit assumed)): 41.7 ± 0.09 | LE (ligand efficiency) [4]: 0.53

N#Cn1c(N2CCSCC2)nc2ccccc21 [Compound 27]
ΔTm: difference in melting point of LdtMt2 relative to unreacted LdtMt2 (43.8 °C) [2]: -1.3 | Tm: melting point of LdtMt2 after pre-incubation with the compound ([2]; pH 7.5, in °C (unit assumed)): 42.5 ± 0.09 | pIC50 BlaC [3]: < 4.0 | LE (ligand efficiency) [4]: 0.66

N#Cn1c(N2CCOCC2)nc2ccccc21 [Compound 28]
ΔTm: difference in melting point of LdtMt2 relative to unreacted LdtMt2 (43.8 °C) [2]: -1.5 | Tm: melting point of LdtMt2 after pre-incubation with the compound ([2]; pH 7.5, in °C (unit assumed)): 42.3 ± 0.09 | pIC50 BlaC [3]: < 4.0 | LE (ligand efficiency) [4]: 0.66

N#Cn1c(-c2ccc(-c3nccs3)cc2)nc2ccccc21 [Compound 29]
kinact/KI [1, 6]: 1164 ± 105 M⁻¹ s⁻¹ | ΔTm: difference in melting point of LdtMt2 relative to unreacted LdtMt2 (43.8 °C) [2]: -0.9 | Tm: melting point of LdtMt2 after pre-incubation with the compound ([2]; pH 7.5, in °C (unit assumed)): 42.9 ± 0.19 | LE (ligand efficiency) [4]: 0.51

N#Cn1c(-c2cnc(-c3cccs3)nc2)nc2ccccc21 [Compound 31]
kinact/KI [1, 7]: 609 ± 11 M⁻¹ s⁻¹ | Tm: melting point of LdtMt2 after pre-incubation with the compound [2, 5]: 42.1 ± 0.10 °C | ΔTm at 500 µM [2]: -1.7 °C | IC50 ([3]; pIC50 BlaC): 11200 nM | LE (ligand efficiency) ([4]; Table S5, for LdtMt2): 0.51 | IC50 [4]: 47.9 nM

N#Cn1c(-c2ccc(OC3CCOCC3)cc2)nc2ccccc21 [Compound 32]
kinact/KI [1, 6]: 86.3 ± 2.6 M⁻¹ s⁻¹ | ΔTm: difference in melting point of LdtMt2 relative to unreacted LdtMt2 (43.8 °C) [2]: -1.5 | Tm: melting point of LdtMt2 after pre-incubation with the compound ([2]; pH 7.5, in °C (unit assumed)): 42.3 ± 0.09 | LE (ligand efficiency) [4]: 0.47

N#Cn1c(-c2ccncc2)nc2ccc(-c3ccco3)cc21 [Compound 33]
kinact/KI [1, 6]: 71.8 ± 1.1 M⁻¹ s⁻¹ | ΔTm: difference in melting point of LdtMt2 relative to unreacted LdtMt2 (43.8 °C) [2]: -0.5 | Tm: melting point of LdtMt2 after pre-incubation with the compound ([2]; pH 7.5, in °C (unit assumed)): 43.3 ± 0.09 | LE (ligand efficiency) [4]: 0.51

N#Cn1c(-c2ccncc2)nc2ccc(-c3ccncc3)cc21 [Compound 34]
kinact/KI [1, 6]: 68.4 ± 2.7 M⁻¹ s⁻¹ | ΔTm: difference in melting point of LdtMt2 relative to unreacted LdtMt2 (43.8 °C) [2]: -1.7 | Tm: melting point of LdtMt2 after pre-incubation with the compound ([2]; pH 7.5, in °C (unit assumed)): 42.1 ± 0.09 | pIC50 BlaC [3]: < 4.0 | LE (ligand efficiency) [4]: 0.49

N#CN1CCCN1C(=O)OCc1ccc(Cl)c(Cl)c1 [Compound 37]
kinact/KI [1, 6]: 8.44 ± 1.2 M⁻¹ s⁻¹ | ΔTm: difference in melting point of LdtMt2 relative to unreacted LdtMt2 (43.8 °C) [2]: -1.5 | Tm: melting point of LdtMt2 after pre-incubation with the compound ([2]; pH 7.5, in °C (unit assumed)): 42.3 ± 0.09 | LE (ligand efficiency) [4]: 0.59

CNC(C)C(=O)NC1CCN(c2ccc(N3CCCC3)cc2C#N)C1 (stereo not drawn) [Compound 38]
ΔTm: difference in melting point of LdtMt2 relative to unreacted LdtMt2 (43.8 °C) [2]: -1.0 | Tm: melting point of LdtMt2 after pre-incubation with the compound ([2]; pH 7.5, in °C (unit assumed)): 42.8 ± 0.00 | pIC50 BlaC [3]: < 4.0 | LE (ligand efficiency) [4]: 0.45

O=C1OC2(c3ccc(O)cc3Oc3cc(OS(=O)(=O)c4ccc([N+](=O)[O-])cc4[N+](=O)[O-])ccc32)c2ccccc21 (stereo not drawn) [probe 2, reference compound]
(kinact/KI)probe ([1]; from kobs, LdtMt2 100 nM, probe 2 100 nM to 10 μM): 39.8 M⁻¹ s⁻¹
